The text below walks through data of US9353154B2, “Compositions for labeling nerves and methods of use” (Avelas Biosciences, Inc., priority 2010, dated 2016).

Entries after “also recorded” stand apart in the source; their conditions may differ. Where a SMILES comes first, the peptide text is derived from it. The star is where a group is joined. 6FAM = O=C1OC2(c3ccc(O)cc3Oc3cc(O)ccc32)c2cc(C(=O)*)ccc21

The test system of one data set is mouse sciatic nerve. As to the kind of experiment: In vivo sciatic nerve fluorescence contrast (nerve vs surrounding muscle). The note with it: 150 nmol via tail vein injection, imaging at 2 h. Here is the method:
(§1) Fluorescence contrast activity of was assessed using male euthymic and immunocompetent hairless SKH1-E mice (25-35 grams). On the day of study, each involved mouse was weighed and restrained using the rotating tail injector for intravenous (tail vein) injection in conscious animal.
(§2) Test agents were injected intravenously into the tail vein (30-150 nmol in 0.1 mL/mouse). The animals were returned to assigned cage and kept under controlled environmental conditions before being examined for sciatic nerve fluorescence labeling 2 hours later.
(§3) Two hours after the intravenous injection, the mice were anesthetized with a mixture of ketamine HCl/Xylazine HCl solution administered intraperitoneally. The deeply anesthetized mice were transferred on the piece of cork for blunt dissection of sciatic nerve.
After the full body imaging, the deeply anesthetized mice were transferred on the computerized fluorescent stereomicroscope equipped with appropriate excitation/emission filters to examine and record the fluorescence specific to sciatic nerve and compare it to that documented on the surrounding tissues such as muscle. All captured images were examined and analyzed using Image J to generate quantitative data.
For each experimental group, fluorescence intensities from each mouse sciatic nerve were averaged to generate the Mean±SEM value. The background was defined as the average fluorescence intensities of the muscle tissue surrounding the sciatic nerve. The fluorescence contrast (C) is defined and calculated as C=(IN−IB)/IB, where IN is the average nerve fluorescence intensity and IB is the average proximal background intensity. Constrast>0.4 is considered good.

The next data set relates to mouse skin. As to the kind of experiment: In vivo skin fluorescence (full body imaging, skin staining activity). The following applies: 150 nmol via tail vein injection, imaging at 2 h. Here is the method: as §1, §2, §3
Full body imaging of deeply anesthetized mouse with open surgical wound/exposed sciatic nerve was then performed using a computerized imaging system with appropriate excitation/emission filters. The full body imaging was used to calculate the skin staining activity of the visualization agents.

Data set [1] can be described thus: Plasma digestion of Peptide A followed by LC-MS. The class given is in vitro ADME. The note with it: mouse plasma, 37° C. As to the method:
(§4) 6-Carboxylfluorescein (6-FAM) labeled peptide A (1 mg) was added to freshly prepared mouse plasma (0.5 mL). The resulting solution was gently mixed and incubated at 37° C. The reaction was followed by an LC-MS at different time points. An analogous procedure was done at room temperature with 1-5 mg of Peptide A.

Data set [2] in a line: Stability of peptide A in saline (control). Format: physicochemical. The note with it: 48 h. As to the method:
as §4
The peak was isolated by preparative RP-HPLC. […] As a control, peptide A is stable in saline after 48 h (Chart E&F, FIG. 5).

Regarding “Ac-Glu-His-Thr-Gly-Lys(6FAM)-NH2 (Ac-EHTGK(6FAM)-NH2; SMILES CC(=O)N[C@@H](CCC(=O)O)C(=O)N[C@@H](Cc1c[nH]cn1)C(=O)N[C@H](C(=O)NCC(=O)N[C@@H](CCCCNC(=O)c1ccc2c(c1)C1(OC2=O)c2ccc(O)cc2Oc2cc(O)ccc21)C(N)=O)[C@@H](C)O) [Peptide 3]”, the fluorescence nerve contrast entry is “high” in the data set on mouse sciatic nerve and “excellent; also recorded: very high” in the data set with mouse sciatic nerve (listed as peptide 3). The “fluorescence nerve contrast relative to peptide A” value in the data set on mouse sciatic nerve is recorded as “greater”. Also, the “skin fluorescence compared to peptide A” value is “significantly less” with mouse skin and “much less” with mouse skin (listed as peptide 3).
As for `CC(=O)N[C@@H](CO)C(=O)N[C@@H](Cc1c[nH]cn1)C(=O)N[C@@H](CO)C(=O)N[C@@H](CC(N)=O)C(=O)N[C@H](C(=O)N[C@@H](CCC(N)=O)C(=O)N[C@H](C(=O)N[C@@H](CC(C)C)C(=O)N[C@@H](C)C(=O)N[C@@H](CCCCN)C(=O)N[C@@H](C)C(=O)N1CCC[C@H]1C(=O)N[C@@H](CCC(=O)O)C(=O)N[C@@H](Cc1c[nH]cn1)C(=O)N[C@H](C(=O)NCC(=O)N[C@@H](CCCCNC(=O)c1ccc2c(c1)C1(OC2=O)c2ccc(O)cc2Oc2cc(O)ccc21)C(N)=O)[C@@H](C)O)[C@@H](C)O)[C@@H](C)O` [Peptide A, Ac-Ser-His-Ser-Asn-Thr-Gln-Thr-Leu-Ala-Lys-Ala-Pro-Glu-His-Thr-Gly-Lys(6FAM)-NH2] (Ac-SHSNTQTLAKAPEHTGK(6FAM)-NH2), in data set [1] (3 h), the “digested products in plasma” value is listed as “No detectable digested products”. For the same compound, the “digestion in plasma (HPLC chromatogram, 220 nm absorbance)” value in data set [1] (20 h) and in data set [1] (48 h) was “a new peak appeared” throughout. The “major truncated component after plasma digestion” value in data set [1] (peak isolated by preparative RP-HPLC) is on record as “C-terminus lysine labeled with 6-FAM”. Besides, the stability in saline result in data set [2] is given as “stable”.
